Results taken from PubChem BioAssay AID1996.
≈ marks a conversion by molar mass, not a printed value.

Settings: buffer; pH 7.4; 200.0 µM
In the case of Cc1ccc(OCc2csc(N)n2)cc1, the solubility kinetic is reported as > 33 µg/mL.
COc1ccc(CCC(=O)N2CCCc3ccccc32)cc1 gave a solubility kinetic of 39.1 µg/mL (≈ 132 µM).
For COCCn1c(SCC(=O)c2ccccc2)nc2c(c1=O)SCC2, the solubility kinetic was 42.5 µg/mL (≈ 117 µM).
CCOc1ccc(NC(=O)CN2C(=O)C(C)SC(C)C2=O)cc1 (configuration not stated) showed a solubility kinetic of 34.8 µg/mL (≈ 103 µM).
Work on COc1cccc(NC(=S)N(CCN(C)C)Cc2cccs2)c1 yielded a solubility kinetic of 41.6 µg/mL (≈ 119 µM).
Compound NC(=O)c1cc[n+](CC(=O)NC(=O)Nc2ccccc2)cc1 has a solubility kinetic of 30.5 µg/mL.
COc1cccc(OCCn2cc(C(C)=O)c3ccccc32)c1 showed a solubility kinetic of 10.9 µg/mL (≈ 35.2 µM).
In the case of O=C(CN1C(=O)c2cccc3cccc1c23)NC1CCCCC1, the solubility kinetic is reported as 1.8 µg/mL (≈ 5.84 µM).
Cc1ccc(C2NC(=NCc3ccccc3)Nc3nc(C)cc(=O)n32)cc1 (configuration not stated) gave a solubility kinetic of 13.1 µg/mL (≈ 36.4 µM).
With O=C(Nc1ccc(Cl)cn1)c1cccc2ccccc12 the solubility kinetic was 1.3 µg/mL (≈ 4.6 µM).
In the case of COc1ccc(C(=O)O)cc1S(=O)(=O)N1CCSCC1, the solubility kinetic is reported as > 47.6 µg/mL.
For CC(=O)Nc1cccc(OCC(=O)NCCC2=CCCCC2)c1, the solubility kinetic was > 47.5 µg/mL.
With CS(=O)(=O)c1ccccc1C(=O)NC1CCCc2ccccc21 (configuration not stated) the solubility kinetic was > 49.4 µg/mL.
In the case of COC(=O)Cc1c(O)ccn(Cc2ccc(OC)c(OC)c2)c1=O, the solubility kinetic is reported as > 50 µg/mL.
In the case of COc1ccc(CN2CCOCCOCCOCCOCC2)cc1, the solubility kinetic is reported as > 50.9 µg/mL.
In the case of O=C(Nc1ccc2ccccc2c1)c1cccc([N+](=O)[O-])c1, the solubility kinetic is reported as < 0.3 µg/mL.
In the case of CC(C)Oc1ccc(C(=O)NCC(=O)O)cc1, the solubility kinetic is reported as > 35.6 µg/mL.
COc1ccc(NC(=O)CSCCc2ccccn2)cc1OC showed a solubility kinetic of 48.7 µg/mL (≈ 146 µM).
With CCN(C(=O)CSc1nnc(-c2ccc(F)cc2)n1C)C1CCS(=O)(=O)C1 (configuration not stated) the solubility kinetic was > 61.9 µg/mL.
In the case of Cc1ccc(OCC(O)CNCc2ccccc2)cc1C (configuration not stated), the solubility kinetic is reported as 36.2 µg/mL (≈ 127 µM).
For CN1CCc2c(OCC(=O)N3CCCc4ccccc43)cccc2C1=O, the solubility kinetic was > 52.6 µg/mL.
For Cc1ccc(SCCNC(=O)c2ccccc2F)cc1, the solubility kinetic was 27.8 µg/mL (≈ 96.1 µM).
Compound CC(C)(C)NC(=O)NC(=O)CN1CCCc2ccccc21 has a solubility kinetic of 11.9 µg/mL (≈ 41.1 µM).
Cl.Nc1cc(Cl)ccc1N1CCCC1 gave a solubility kinetic of 10.6 µg/mL.
With CCc1ccccc1N1C(=O)C2C3C=CC(CC3)C2C1=O (configuration not stated) the solubility kinetic was > 42.2 µg/mL.
CSCc1ccc(C(=O)OCc2nc3ccccc3s2)o1 gave a solubility kinetic of 13.3 µg/mL (≈ 41.6 µM).
Compound COc1cccc(OC)c1C(=O)Nc1ccc(N2CCCC2)cc1 has a solubility kinetic of 46.9 µg/mL (≈ 144 µM).
In the case of O=C(Nc1ccc2c(c1)OCCO2)C1CC(O)CN1C(=O)Nc1ccccc1 (configuration not stated), the solubility kinetic is reported as > 57.5 µg/mL.
N/C(=N\O)c1ccc(N2CCN(c3ncccc3C(F)(F)F)CC2)nc1 gave a solubility kinetic of 51.7 µg/mL (≈ 141 µM).
In the case of CCc1ccc(OC(=O)c2cccnc2)cc1, the solubility kinetic is reported as 26.8 µg/mL (≈ 118 µM).
For COc1ccccc1OCCCOc1cccc(/C=C2\SC(=O)NC2=O)c1, the solubility kinetic was < 0.8 µg/mL.
OCC(CO)(CO)NC(=S)Nc1cc(Cl)cc(Cl)c1 showed a solubility kinetic of 46.7 µg/mL (≈ 144 µM).
For O=C(CN1C(=O)NC2(CCCCCC2)C1=O)Nc1ccccc1[N+](=O)[O-], the solubility kinetic was 7.3 µg/mL (≈ 20.3 µM).
For COc1ccc(C(CNS(=O)(=O)c2ccc(NC(C)=O)c(OC)c2)N2CCCC2)cc1.Cl (configuration not stated), the solubility kinetic was > 72.6 µg/mL.
With Cn1c(N)c(C(=O)COC(=O)c2cc(S(=O)(=O)N3CCOCC3)ccc2F)c(=O)n(C)c1=O the solubility kinetic was > 72.7 µg/mL.
CN1CCN(C(=O)/C(=C/c2ccco2)NC(=O)c2ccccc2)CC1 showed a solubility kinetic of 40.7 µg/mL (≈ 120 µM).
With Cc1ccc(C(=O)N2CCN(CCNC(=O)C(=O)Nc3ccc(Cl)cc3)CC2)cc1 the solubility kinetic was 2.6 µg/mL (≈ 6.06 µM).
Compound O=C(COC(=O)c1ccc2c(c1)OCO2)Nc1ccccc1Cl has a solubility kinetic of 3.5 µg/mL (≈ 10.5 µM).
For O=C(COC(=O)Cc1ccccc1F)Nc1ccc(F)cc1F, the solubility kinetic was 47.9 µg/mL (≈ 148 µM).
In the case of COc1ccc(CCNC(=O)COC(=O)c2cccn2C)cc1, the solubility kinetic is reported as > 47.5 µg/mL.
With CC(CCc1ccccc1)NC(=O)COC(=O)c1cccnc1Cl (configuration not stated) the solubility kinetic was > 52 µg/mL.
In the case of O=C(COc1ccc(F)cc1Cl)N1CCN(C(=O)c2cccs2)CC1, the solubility kinetic is reported as > 57.4 µg/mL.
CC(NC(=O)c1cccs1)c1ccc(Cl)cc1 (configuration not stated) gave a solubility kinetic of 9.8 µg/mL (≈ 36.9 µM).
In the case of O=C(O)c1ccccc1Sc1ncnc2sccc12, the solubility kinetic is reported as > 43.3 µg/mL.
With COc1ccc([N+](=O)[O-])cc1NC(=O)C(C)OC(=O)Cc1ccc(OC)c(OC)c1 (configuration not stated) the solubility kinetic was 31.1 µg/mL (≈ 74.3 µM).
With COC(c1ccccc1)c1nc2ccccc2[nH]c1=O (configuration not stated) the solubility kinetic was > 39.9 µg/mL.
In the case of O=C(CCCn1cnc2ccccc2c1=O)Nc1ccccc1F, the solubility kinetic is reported as 20.2 µg/mL (≈ 62.1 µM).
